# Tests used:
# Format in all cases: in vivo, Solanum tuberosum
# [1] = test system: Russet Burbank and Ranger Russet seed-tubers; assay: Example 5: sprout inhibition by C5 to C9 trans-2 aldehydes over prolonged storage (17 weeks); conditions: 0.5, 0.75 and 1.0 mmol/kg tuber, 24 hours, 17 weeks at 8° C.; for inhibition of sprout development (in words): 95% RH
# Procedure: (46° F.), 95% relative humidity (RH), for 17 weeks. As described more fully in Example 5, four-month-old tubers (previously stored at 4° C.) were treated (for 24 h) with different concentrations of the aldehydes in mid January. The treated tubers were then stored in the dark for 120 days (17 weeks).
# Methods: Four-month-old Russet Burbank and Ranger Russet seed-tubers were taken from a 4° C. storage area and treated (Jan. 10, 2001) separately with 0, 0.5, 0.75 and 1.0 mmol/kg tuber of trans-2-pentenal, trans-2-hexenal, trans-2-heptenal, trans-2-octenal, and trans-2-nonenal in 3.9 L glass jars. The volume of inhibitor required to achieve the above rates was pipetted onto filter paper discs inside the lids of each jar. The concentration of inhibitors in the headspace of the jars was equal at 0.16 mmol/L. The tubers were enclosed in the jars and thus exposed to inhibitor vapor for 24 hours at 23° C. Control tubers were enclosed in a glass jar without any aldehyde. Following treatment, tubers were removed from the jars and placed at 8° C. (46° F.) (95% relative humidity) in the dark to sprout for 120 days (17 weeks). The experiment was set up in a randomized complete block design (5 replicates) with chemicals and concentrations arranged factorially. Effects of the aliphatic aldehydes on the development of etiolated sprouts were documented photographically and quantitatively (sprout number and fresh weight) after 120 days of storage.
# [2] = test system: Russet Burbank seed tubers; assay: Example 4: sprout inhibition by aldehyde vapors, 26 days of sprouting; conditions: 12 hours vapor, 26 days at 18° C.
# Procedure: Methods: Eleven-month-old Russet Burbank seed tubers were taken from a 4° C. storage area and exposed to trans-2-hexenal (0.6-4.3 mmol/kg), trans-2-heptenal (0.6-3.8 mmol/kg) and trans-2-octenal (0.5-2.5 mmol/kg) vapors separately in 3.9 L glass containers for 12 hours at 23° C. The aldehydes were applied to filter paper inside petri dishes within each jar. Control tubers were enclosed in a glass container without any aldehyde. Sprouts were ‘peeping’ (approximately 3 mm in length) at the time of treatment. Following treatment, tubers were placed at 18° C. (95% relative humidity) in the dark to sprout for 26 days. The experiment was set up in a randomized complete block design (5 replicates) with chemicals and concentrations arranged factorially. Effects of the aliphatic aldehydes on the development of etiolated sprouts were documented at 20 days (photographically) and 26 days of sprouting.
# Russet Burbank tubers = assay: Example 6: reconditioning, sprout fresh weight and fry color; conditions: 0.45 mmol/kg
# Procedure: Seven-month-old tubers from 4° C. (40° F.) storage were treated with 0.45 mmol/kg trans-2-nonenal for 17 hours at 23° C. The tubers were then placed at 14° C. (57° F.) to recondition. French fries were processed from the tubers through four weeks of reconditioning. Fry color (lightness or darkness) was quantified with a photovolt reflectance meter. High photovolt values indicate light-colored fries (high processing quality). Low photovolt values indicate low-quality, dark-colored fries.
# Methods: Russet Burbank tubers were stored at 7° C. (44° F.) from harvest Oct. 29, 2000 to Jan. 26, 2001. The tubers were transferred to 4° C. (40° F.) on Jan. 26, 2001, until treatment on Apr. 2, 2001. Tubers were treated with 0.45 mmol/kg trans-2-nonenal in 9.2 L glass desiccators for 17 hours at 23° C. Following treatment, the tubers were placed at 14° C. (57° F.) to recondition for 0, 1, 2, 3 and 4 weeks. […] Fry darkness of the apical and basal ends of the fries was quantified with a photovolt reflectance meter within three minutes of frying. A high reflectance reading (photovolt unit) indicates light fry color due to a relatively low sugar level and thus a high-quality processed product. Conversely, a low reflectance reading indicates dark fry color due to high sugar content, resulting in low processing quality. […] Sprout fresh weight and fry color were recorded.
structure (smiles),measurement,setting,value
CC/C=C/C=O [trans-2-pentenal],inhibition of sprout development (in words),[1],inhibited sprouting in a concentration-dependent manner
CCCCC/C=C/C=O [trans-2-octenal],Average Sprout Length,[2]; 0.50 mmol/kg,0 cm/tuber
same,Sprout Fresh Weight,[2]; 0.50 mmol/kg,0 g/tuber
same,Average Sprout Length,[2]; 0.97 mmol/kg,0 cm/tuber
same,Sprout Fresh Weight,[2]; 0.97 mmol/kg,0 g/tuber
same,Average Sprout Length,[2]; 1.44 mmol/kg,0 cm/tuber
same,Sprout Fresh Weight,[2]; 1.44 mmol/kg,0 g/tuber
same,Average Sprout Length,[2]; 1.93 mmol/kg,0.2 cm/tuber
same,Sprout Fresh Weight,[2]; 1.93 mmol/kg,0.10 g/tuber
same,Average Sprout Length,[2]; 2.48 mmol/kg,0.2 cm/tuber
same,Sprout Fresh Weight,[2]; 2.48 mmol/kg,0.13 g/tuber
same,external pitting damage to the periderm (in words),[1],did not induce external pitting damage
same,inhibition of sprout development (in words),[1],totally inhibited sprout development
CCCCCC/C=C/C=O [trans-2-nonenal],sprouts produced (fresh weight),"Russet Burbank tubers; 17 hours at 23° C., four weeks of reconditioning at 57° F.",13.5 g fresh weight/12 tubers
same,"processing quality (fry color, photovolt reflectance) (in words)",Russet Burbank tubers; from 2 to 4 weeks of reconditioning at 57° F.,continued to increase
same,external pitting damage to the periderm (in words),[1],did not induce external pitting damage
same,inhibition of sprout development (in words),[1],totally inhibited sprout development
CCCC/C=C/C=O [trans-2-heptenal],Average Sprout Length,[2]; 0.56 mmol/kg,0.2 cm/tuber
same,Sprout Fresh Weight,[2]; 0.56 mmol/kg,0.01 g/tuber
same,Average Sprout Length,[2]; 1.11 mmol/kg,0 cm/tuber
same,Sprout Fresh Weight,[2]; 1.11 mmol/kg,0 g/tuber
same,Average Sprout Length,[2]; 1.69 mmol/kg,0 cm/tuber
same,Sprout Fresh Weight,[2]; 1.69 mmol/kg,0 g/tuber
same,Average Sprout Length,[2]; 2.16 mmol/kg,0 cm/tuber
same,Sprout Fresh Weight,[2]; 2.16 mmol/kg,0 g/tuber
same,Average Sprout Length,[2]; 3.85 mmol/kg,0 cm/tuber
same,Sprout Fresh Weight,[2]; 3.85 mmol/kg,0 g/tuber
same,inhibition of sprout development (in words),[1],inhibited sprouting in a concentration-dependent manner

# — patent publication US6855669B2, “Use of α,β unsaturated aliphatic aldehydes and ketones to inhibit potato tuber sprouting” (Washington State University Research Foundation, priority 2000, dated 2005)
